The target of experiment [1] is T1, Oxysterols receptor LXR-beta (Homo sapiens) (UniProt P55055).
T1 sequence (whole entry): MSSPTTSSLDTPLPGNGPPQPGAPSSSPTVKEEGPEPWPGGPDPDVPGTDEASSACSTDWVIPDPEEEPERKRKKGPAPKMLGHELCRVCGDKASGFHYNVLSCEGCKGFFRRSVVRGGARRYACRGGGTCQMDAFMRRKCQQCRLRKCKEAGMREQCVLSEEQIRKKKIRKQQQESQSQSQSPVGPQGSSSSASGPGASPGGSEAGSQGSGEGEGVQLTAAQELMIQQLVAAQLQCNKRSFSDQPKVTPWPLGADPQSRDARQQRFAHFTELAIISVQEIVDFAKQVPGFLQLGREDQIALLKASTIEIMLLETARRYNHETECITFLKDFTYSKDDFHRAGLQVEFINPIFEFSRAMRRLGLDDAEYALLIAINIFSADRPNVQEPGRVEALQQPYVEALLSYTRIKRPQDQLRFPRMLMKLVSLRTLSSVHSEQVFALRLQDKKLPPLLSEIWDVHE
The experiment can be described thus: Agonist activity at GAL4 fused LXRbeta-LBD (unknown origin) transfected in CHOK1 cells at 10 uM after 24 hrs by luciferase reporter gene assay in presence of T0901317. In kind it is cell-based. Conditions: CHO-K1. A general note: In a reporter assay the amount or activity of a reporter protein is the signal.

The target in experiment [2] is T2, Oxysterols receptor LXR-beta (Homo sapiens, UniProt P55055).
T2 sequence (P55055 whole entry): T1 sequence (whole entry)
In words: Agonist activity at GAL4 fused LXRbeta-LBD (unknown origin) transfected in CHOK1 cells after 24 hrs by luciferase reporter gene assay.

The target of experiment [3] is T3, Oxysterols receptor LXR-alpha (Homo sapiens) (UniProt Q13133).
T3 sequence (whole entry): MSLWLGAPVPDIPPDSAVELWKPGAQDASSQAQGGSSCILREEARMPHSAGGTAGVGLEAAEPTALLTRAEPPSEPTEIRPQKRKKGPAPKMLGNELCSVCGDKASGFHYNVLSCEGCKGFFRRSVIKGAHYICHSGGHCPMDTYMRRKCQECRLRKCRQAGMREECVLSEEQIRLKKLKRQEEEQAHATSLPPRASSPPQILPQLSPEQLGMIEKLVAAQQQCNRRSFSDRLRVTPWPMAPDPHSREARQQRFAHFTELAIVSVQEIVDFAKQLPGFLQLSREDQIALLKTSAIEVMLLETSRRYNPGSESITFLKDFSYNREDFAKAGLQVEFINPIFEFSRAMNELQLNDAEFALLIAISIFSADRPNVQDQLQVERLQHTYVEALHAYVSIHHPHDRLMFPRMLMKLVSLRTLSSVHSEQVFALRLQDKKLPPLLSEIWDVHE
In words: Agonist activity at GAL4 fused LXRalpha (unknown origin) transfected in CHOK1 cells at 10 uM after 24 hrs by luciferase reporter gene assay in presence of T0901317. In kind it is cell-based. The settings on record: CHO-K1.

In the next experiment the test system is CHO-K1. The experiment can be described thus: Selectivity ratio of EC50 for GAL4 fused LXRalpha (unknown origin) transfected in CHOK1 cells to EC50 for GAL4 fused LXRbeta-LBD (unknown origin) transfected in CHOK1 cells. Type of experiment: cell-based. The settings on record: Homo sapiens.
The target of experiment [4] is T4, Oxysterols receptor LXR-alpha (Homo sapiens, UniProt Q13133).
T4 sequence (Q13133 whole entry): T3 sequence (whole entry)
In words: Agonist activity at GAL4 fused LXRalpha (unknown origin) transfected in CHOK1 cells after 24 hrs by luciferase reporter gene assay.

In experiment [5] the target is T3, Oxysterols receptor LXR-alpha (Homo sapiens). In words: Agonist activity at GAL4 fused LXRalpha (unknown origin) transfected in CHOK1 cells at 10 uM after 24 hrs by luciferase reporter gene assay. Conditions: CHO-K1. In kind it is cell-based.

These results are taken from ChEMBL document CHEMBL3813680, “Discovery of a 2-hydroxyacetophenone derivative as an outstanding linker to enhance potency and β-selectivity of liver X receptor agonist” (Bioorg Med Chem, 2016).

The term Emax denotes the maximal effect, on the per cent scale that the assay sets. What is called EC50 is the concentration giving half of the maximal effect. Low values mean a more potent agent, high ones a less potent agent.

SMILES strings stand for the structures. Active and inactive are the calls of the source. No cut-off for these calls is given here.

In the case of `CCCc1cc(C(O)(C(F)(F)F)C(F)(F)F)ccc1Oc1cccc(CCN2C(=O)NC(C)(c3ccc(OC(C)C)cc3)C2=O)c1` (centres undefined), the Emax in experiment [1] is 126%; in experiment [3], 23%. In addition, the EC50 in experiment [2] is 2850 nM; in experiment [4] it was 2890 nM. Further, the Ratio EC50 in the experiment on CHO-K1 is 1.01.
For the molecule `CCCc1cc(C(O)(C(F)(F)F)C(F)(F)F)ccc1Oc1ccc(CCN2C(=O)NC(C)(c3ccc(OC(C)C)cc3)C2=O)c(C)c1` (centres undefined), the Emax came to 615% in experiment [1] and 53% in experiment [3]. The EC50 in experiment [2] stood at 700 nM; in experiment [4] it was 3140 nM. Besides, in the experiment with CHO-K1, the Ratio EC50 was 4.89.
In the case of `CCCc1cc(C(O)(C(F)(F)F)C(F)(F)F)ccc1Oc1ccc(C(=O)CN2C(=O)NC(C)(c3ccc(OC(C)C)cc3)C2=O)c(C)c1` (centres undefined), the Emax in experiment [1] came out at 264%; in experiment [3] it was 71%. For the same molecule, the EC50 in experiment [2] amounted to 64 nM; in experiment [4], 400 nM. The Ratio EC50 in the experiment with CHO-K1 is 6.25.
As for `CCCc1cc(C(O)(C(F)(F)F)C(F)(F)F)ccc1Oc1ccc(C(=O)CN2C(=O)NC(C)(c3ccc(OC(C)C)cn3)C2=O)c(O)c1` (single isomer, unassigned; (+)) [listing 1 of 2 here], the Emax in experiment [1] was 269%; in experiment [3], 25%. Besides, the outcome in experiment [5] was inactive.
`CCCc1cc(C(O)(C(F)(F)F)C(F)(F)F)cc(CCC)c1OC/C=C/CN1C(=O)NC(C)(c2ccc(OC(C)C)cc2)C1=O` (centres undefined): the Emax in experiment [1] was 182%; in experiment [3], 40%. Moreover, the results for the EC50 in experiment [2] and in experiment [4] were 800 nM and 1230 nM, respectively. Further, in the experiment with CHO-K1, the Ratio EC50 came to 1.54.
On to `CCCc1cc(C(O)(C(F)(F)F)C(F)(F)F)ccc1Oc1ccc(CCN2C(=O)NC(C)(c3ccc(OC(C)C)cc3)C2=O)c(O)c1` (centres undefined), for which the results for the Emax in experiment [1] and in experiment [3] were 284% and 1%, respectively. Besides, the EC50 in experiment [2] turned out to be 2870 nM. The Ratio EC50 in the experiment on CHO-K1 was determined as 3.48. Moreover, in experiment [5], the outcome was inactive.
In the case of `CCCc1cc(C(O)(C(F)(F)F)C(F)(F)F)ccc1Oc1ccc(C(=O)CN2C(=O)NC(C)(c3ccc(OC(C)C)cn3)C2=O)c(O)c1` (single isomer, unassigned; (+)) [listing 2 of 2 here], the midpoint of the response in experiment [2], the EC50, lay at 2900 nM.
Turning to `CCCc1cc(C(O)(C(F)(F)F)C(F)(F)F)cc(CCC)c1OCC#CCN1C(=O)NC(C)(c2ccc(OC(C)C)cc2)C1=O` (centres undefined), the Emax in experiment [1] came to 149%; in experiment [3], 27%. The EC50 in experiment [2] turned out to be 610 nM; in experiment [4], 860 nM. In addition, in the experiment with CHO-K1, the Ratio EC50 came out at 1.41.
Consider `CCCc1cc(C(O)(C(F)(F)F)C(F)(F)F)ccc1Oc1ccc(C(=O)CN2C(=O)NC(C)(c3ccc(OC(C)C)cn3)C2=O)c(O)c1` (racemic), for which the figures for the maximal response (Emax) in experiment [1] and in experiment [3] were 329% and 68%, respectively. For the same molecule, the Ratio EC50 in the experiment with CHO-K1 stood at 5.69.
Consider `CCCc1cc(C(O)(C(F)(F)F)C(F)(F)F)ccc1Oc1ccc(C(=O)CN2C(=O)NC(C)(c3ccc(OC(C)C)cc3)C2=O)cc1` (centres undefined), for which the Emax in experiment [1] amounted to 236%; in experiment [3] it was 46%. In addition, the concentration for a half-maximal effect (EC50) amounted to 120 nM in experiment [2] and 360 nM in experiment [4]. The Ratio EC50 with CHO-K1 came out at 3.
For `CCCc1cc(C(O)(C(F)(F)F)C(F)(F)F)ccc1Oc1cccc(CN2C(=O)NC(C)(c3ccc(OC(C)C)cc3)C2=O)c1` (centres undefined) the same measures were 429%, 53%, 500 nM, 1960 nM and 3.92.
For `CCCc1cc(C(O)(C(F)(F)F)C(F)(F)F)ccc1Oc1ccc(C(=O)CN2C(=O)NC(C)(c3ccc(OC(C)C)cc3)C2=O)c(OC)c1` (centres undefined), the Emax in experiment [1] stood at 306%; in experiment [3] it was 38%. In addition, the EC50 in experiment [2] is 360 nM; in experiment [4], 3740 nM. Besides, the Ratio EC50 in the experiment on CHO-K1 was 10.4.
On to `CCCc1cc(C(O)(C(F)(F)F)C(F)(F)F)ccc1Oc1ccc(C(=O)CN2C(=O)NC(C)(c3ccc(OC(C)C)cn3)C2=O)c(O)c1` (single isomer, unassigned; (-)), for which the values for the Emax in experiment [1] and in experiment [3] were 255% and 164%, respectively.
